These results are taken from patent publication US20190247376A1, “NICOTINIC ACETYLCHOLINE RECEPTOR AGONIST ATTENUATES ILC2-DEPENDENT AIRWAY HYPERREACTIVITY” (University of Southern California, priority 2016, published 2019).

The assay relates to lung ILC2s. Nature of the assay: Flow cytometry of proliferation, transcription factor and signalling markers in lung ILC2s. It counts as cell-based, mouse. From the text: FIGS. 5A-5F: Cholinergic signal attenuates ILC2 proliferation and GATA3 expression. (FIG. 5A) Mean fluorescence intensity of Ki67 and percentage of Ki67+ cells in isolated lung ILC2s, stimulated with IL-33 in the absence and presence of α7nAChR. (FIG. 5B) Mean fluorescence intensity of GATA3 in isolated lung ILC2s, stimulated with IL-33 in the absence and presence of α7nAChR. One representative experiment of two is shown (n=5; Student's t test *, p<0.05; **, p<0.01; ***p<0.001). […] FACS-purified ILC2s from WT mice challenged with rm-IL-33 with or without α7nAChR agonist as described in FIG. 3A were quantified by NanoString nCounter technology. Data range from −1 to +1 for the most reduced and most increased gene expression, respectively. (FIG. 5D) Expression of NF-κB p65 in isolated lung ILC2s from mice challenged with IL-33 with (dotted line) or without (thick line) α7nAChR agonist. The level of isotype-matched stain control is shown as a gray-filled histogram. (FIG. 5E) Expression of phosphorylated IKKα/β (Ser176/180) in isolated lung ILC2s stimulated with IL-33, with (dotted line) or without (thick line) α7nAChR agonist for 24 hours. The level of isotype-matched stain control is shown as a gray-filled histogram. (FIG. 5F) Mean fluorescence intensity of phosphorylated IKKα/β with or without α7nAChR agonist.
FIGS. 9A-9C: Effect of α7nAChR agonist on some marker expressions by ILC2s. A cohort of BALB/cByJ mice were intranasally challenged with rm-IL-33 (0.5 μg) with or without α7nAChR agonist (125 μg) for three consecutive days. Histogram and MFI of CD25 (FIG. 9A), CD127 (FIG. 9B) and ST2 (FIG. 9C) in isolated lung ILC2s. Data are representative of at least two independent experiments and are presented as means±SEM (n=4; Student's t test *, p<0.05).
Biotinylated anti-mouse lineage (CD3e (145-2C11), CD45R (RA3-3B2), Gr-1 (RB6-8C5), CD11c (N418), CD11b (M1/70), Ter119 (TER-119), NK1.1 (PK136), TCR-β (H57-597), TCR-γδ (GL3), and FcεRIα (MAR-1), Streptavidin-FITC, FITC anti-mouse CD3 (145-2C11), BV510 anti-mouse CD4 (RM4-5), APC-Cy7 anti-mouse CD25 (PC61), PE anti-mouse CD25 (PC61), BV421 anti-mouse CD25 (PC61), BV510 anti-mouse CD90.2 (53-2.1), APC anti-mouse CD127 (A7R34), PE-Cy7 anti-mouse CD127 (A7R34), FITC anti-mouse CD45 (30F-11), PE/Cy7 anti-mouse CD45 (30-F11), PE anti-mouse IL-5 (TRFK5), BV421 anti-mouse GATA3 (16E10A23), 7-AAD Viability staining solution, purchased from BioLegend (San Diego, Calif.). PE anti-mouse ST2 (IL-33R, RMST2-2), PerCP-eFluor710 anti-Mouse ST2 (RMST2-2), Streptavidin APC-eFluor780, Alexa Fluor647 labeled anti-IL-4 (clone 11B11), eFluor 450 anti-mouse CD45 (30F-11), eFluor450 anti-CD44 (clone IM7), eFluor-660 anti-mouse Ki-67 (SollA15), PE/Cy7 anti-mouse IL-13 (eBio13A), anti-mouse BCL-2 (10C4), were purchased from eBioscience. Alexa Fluor 488 anti-mouse p65-NF-κB (532301) was purchased from R&D Systems (dilution 1:50). Alexa Fluor 647 conjugated α-bungarotoxin (Invitrogen, San Diego, Calif.). PE anti-mouse Phospho-IKKα/β (Ser 176/180) (16A6) was purchased from Cell Signaling Technology (dilution 1:50). PE anti-rat α7nAChR (319) was purchased from Santa Cruz Biotechnology (dilution 1:50). This antibody has been used to identify this receptor previously in several studies^69. Lineage marker antibodies were used at the dilution of 1:400, unless mentioned otherwise other antibodies were used at the dilution of 1:200.
Intracellular staining was performed using BD Cytofix/Cytoperm kit (BD Bioscience, San Jose, Calif.) according to the manufacturer's instructions. For analysis of GATA3 and Ki-67 expression, freshly isolated cells were fixed and permeabilized using Fixation/Permeabilization buffer kit (eBioscience) according to the manufacturer's instructions and as previously described^70.
Background: A flow cytometer gives signals particle by particle.

For `COc1ccc(/C=C2\CCCN=C2c2cccnc2)c(OC)c1` [GTS-21, 3-[(3E)-3-[(2,4-dimethoxyphenyl)methylidene]-5,6-dihydro-4H-pyridin-2-yl]pyridine], the “expression of anti-apoptotic factor Bcl-2 on ILC2s” value (in vivo data) was “unaffected”. Moreover, under “isolated lung ILC2s, IL-33”, the “GATA-3 expression in ILC2s” value is reported as “significantly inhibits” and the “proliferation rate of pulmonary ILC2s (Ki-67 levels)” value was “significantly decreased”. For the same compound, the “NF-κB p65 expression in ILC2s” value (lung ILC2s from mice challenged with IL-33) was “reduced”. In addition, under “lung ILC2s stimulated with IL-33, 24 hours”, the “phosphorylated IKKα/β (Ser176/180) expression in ILC2s” value is “reduced”.
